From PubChem BioAssay (NCI) come the findings set out here.

Holding throughout (assay): inhibition of tumour cell growth, NCI panel, 48 h
Assay [1] relates to MOLT-4 leukemia.
Assay [2] deals with HL-60(TB) leukemia.
Assay [3] relates to HCT-116 colon.
Assay [4] relates to LOX IMVI melanoma.
In assay [5] the test system is UO-31 renal.
Assay [6] concerns IGROV1 ovarian.
Assay [7] relates to UACC-62 melanoma.
Assay [8] deals with ACHN renal.
In assay [9] the test system is DU-145 prostate.

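1) Cells in 96-well plates. 2) Compound, 48 h, 5 concentrations. 3) Linear interpolation between surrounding doses. 4) Unreached endpoint = highest concentration. Abbreviation: GI50, concentration required for 50% inhibition of growth. TGI denotes the concentration required for complete inhibition of growth.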

Regarding `Cc1ccccc1NC(=O)/C(=N\NC(N)=S)C(C#N)c1ccccc1` (stereo not drawn), the TGI in assay [1], in assay [2], in assay [3], in assay [4], in assay [5] and in assay [6] was above 100 µM throughout. For the same compound, the TGI in [7] and in assay [8] was above 100 µM in each case.
On to `COC(=O)c1c(O)ccc(O)c1C(C(C)=O)C(C)=O`, for which the TGI in assay [1], in assay [2], in assay [3], in assay [4], in assay [5] and in [6] was above 100 µM in each case. For the same compound, in assay [7], the TGI is above 100 µM.
As to `O=C(Nc1ccncc1)C(=O)c1cn(S(=O)(=O)c2cccc(Cl)c2)c2ccccc12`, the GI50 is 10.9 µM in [9]; 5.55 µM in [1]; 3.94 µM in assay [2]; 3.1 µM in [3]; 4.72 µM in assay [4]; 11.7 µM in assay [5]. Further, the figures for the GI50 in [6], in assay [7] and in assay [8] were 24.1 µM, 5.81 µM and 7.58 µM, respectively. Also, the TGI in assay [9] is above 100 µM; in [1], above 100 µM; in assay [2] it was above 100 µM; in assay [3], 86.8 µM; in [4], above 100 µM; in [5], above 100 µM. The TGI was above 100 µM in assay [6], above 100 µM in assay [7] and 57.1 µM in assay [8].
Regarding `CN(c1ccccc1)c1cc2ccccc2nn1`, the TGI in assay [1], in assay [2], in assay [3], in assay [4], in assay [5] and in [6] was above 100 µM in each case. Also, the TGI in assay [7] and in assay [8] was above 100 µM throughout.
For the compound `O=C(NC1CC1)c1c(O)[nH]c(=S)[nH]c1=O`, the TGI in assay [1], in [2], in assay [3], in assay [4], in assay [5] and in [6] was above 100 µM in each case. Also, the TGI in assay [7] and in [8] was above 100 µM each time.
With `O=C(O)c1ccc2c(c1)C(=O)N(c1ccc(S(=O)(=O)c3ccc(N4C(=O)c5ccc(C(=O)O)cc5C4=O)cc3)cc1)C2=O`, the TGI in [1], in assay [2], in assay [3], in assay [4], in assay [5] and in assay [7] was above 100 µM each time. This compound yielded a TGI in [8] above 100 µM.
As for `CC1(C)c2ccccc2N2C(c3ccccc3)=NOC21C` (stereo not drawn), the TGI in assay [1], in assay [2], in [3], in assay [4], in [5] and in assay [6] was above 100 µM each time. For the same compound, the TGI in assay [7] and in [8] was above 100 µM in each case.
Regarding `C[P+]1(Cc2ccccc2)CCCC1`, the TGI in [1], in assay [2], in assay [3], in assay [4], in assay [5] and in assay [6] was above 100 µM throughout. Further, the TGI in assay [7] and in assay [8] was above 100 µM throughout.
For `CC(=Nc1ccc(N(C)C)cc1)c1ccccc1`, the TGI was above 100 µM in assay [9]; 72.1 µM in [1]; 43.9 µM in assay [2]; 30.6 µM in assay [3]; 40.7 µM in assay [5]; 75.3 µM in assay [6]. For the same compound, the TGI in assay [7] worked out at 33.6 µM; in assay [8] it was 77.1 µM.
Take `CC1OC(n2cc(C(F)(F)F)c(=O)[nH]c2=O)C=CC1=O` (stereo not drawn): the TGI in assay [1] amounted to 57.2 µM; in [2], 41.2 µM; in assay [3], 29.7 µM; in [4], 33 µM; in assay [5], 33 µM; in assay [6], 39.9 µM. The TGI stood at 47.5 µM in assay [7] and 31.4 µM in assay [8].
`CCOC(=O)C1=C(C)NC(=O)NC1c1ccc(OC)cc1OC` (stereo not drawn): the TGI in [1], in assay [2], in [3], in assay [4], in assay [5] and in assay [6] was above 100 µM each time. Besides, the TGI in [7] and in assay [8] was above 100 µM in each case.
On to `CC(=O)OCC1OC(n2cccnc2=O)C(OC(C)=O)C1OC(C)=O` (stereo not drawn), for which the TGI in [1], in [2], in [3], in [4], in assay [5] and in assay [7] was above 100 µM each time. Further, the TGI in assay [8] is above 100 µM.
As to `CN(C)NC1=C([N+](=O)[O-])C=NN(c2ccccc2)C1`, the TGI in [1] stood at 5.05 µM; in assay [2] it was 4.62 µM; in [3], 3.26 µM; in assay [4], 3.11 µM; in assay [5], 3.19 µM; in assay [6], 3.9 µM. Also, the TGI in assay [7] amounted to 3.14 µM; in assay [8], 3.18 µM.
With `N#C/C(=C\c1c(O)cc(O)cc1O)C(N)=O`, the TGI in [1], in assay [2], in assay [3], in [4], in assay [5] and in assay [8] was above 100 µM throughout.
Consider `Cc1cccc(C)c1NC(=O)CCC(=O)NC(N)=NC#N`, for which the TGI in assay [1], in assay [2], in assay [3], in assay [4], in assay [5] and in assay [6] was above 100 µM in each case. In addition, the TGI in assay [7] and in [8] was above 100 µM throughout.
For `Cn1[nH]cc2ccc3nc4ccccc4c(=O)c3c21`, the TGI in assay [1] is above 95.1 µM; in [2], 90.8 µM; in assay [3], above 100 µM; in [4] it was 46.5 µM; in assay [5], 52.3 µM; in assay [6] it was above 100 µM. Also, the TGI in [7] is 26.6 µM; in assay [8], 98.6 µM.
